Article PMC2841507 (Journal of medicinal chemistry, 2010)

Assays:
[1] = system: nicotine-induced antinociception (tail-flick); test: Blockade of nicotine-induced antinociception, tail-flick test; type: in vivo, mice; settings: ratio of AD50 values, relative to 2a
[2] = molecular target: human DAT (Homo sapiens, UniProt Q01959); test: cell-based; type: cell-based
[3] = molecular target: human NET (Homo sapiens, UniProt P23975); test: cell-based; type: cell-based
[4] = molecular target: human α3β4*-nAChR (Homo sapiens, UniProt P30926+P32297); test: 86Rb+ efflux assay, SH-SY5Y cells; type: cell-based
[5] = molecular target: human α4β2-nAChR (Homo sapiens, UniProt P17787+P43681); test: 86Rb+ efflux assay, SH-EP1-hα4β2 cells; type: cell-based
[6] = molecular target: human α4β4-nAChR (Homo sapiens, UniProt P30926+P43681); test: 86Rb+ efflux assay, SH-EP1-hα4β4 cells; type: cell-based
[7] = molecular target: human muscle-type α1β1γδ- (α1*-) nAChR (Homo sapiens, UniProt P02708+P07510+P11230+Q07001); test: 86Rb+ efflux assay, TE671/RD cells; type: cell-based

Structure (SMILES) | times more potent than 2a in blocking nicotine-induced antinociception in the tail-flick test [1] | IC50 [2] | IC50 [3] | IC50 [4] | IC50 [5] | further results
CC(NC(C)(C)C)C(=O)c1ccc(Br)cc1 (stereo not drawn) [Compound 2h] | ~ 10 fold | – | – | – | – | –
CC(NC(C)(C)C)C(=O)c1ccc(F)c(F)c1 (stereo not drawn) [Compound 2j] | 24 fold | – | – | – | – | –
Cc1cccc(C(=O)C(C)NC(C)(C)C)c1 (stereo not drawn) [Compound 2d] | 24 fold | – | – | – | – | –
CC(C(=O)c1cccc(Br)c1)N1CCCC1 (stereo not drawn) [Compound 2bb, 2-(N-Pyrrolidinyl)-3’-bromopropiophenone] | – | 0.75 ± 0.173 µM | 1.18 ± 0.27 µM | 11 µM | 74 µM | IC50 [6]: 64 µM; IC50 [7]: 19 µM
CC(C(=O)c1cccc(F)c1)N1CCCC1 (stereo not drawn) [Compound 2aa, 2-(N-Pyrrolidinyl)-3’-fluoropropiophenone] | – | 0.156 ± 0.046 µM | 0.135 ± 0.036 µM | 35 µM | 71 µM | fold more potent than 2a in inhibition of DA uptake [2]: 4 fold; fold more potent than 2a in inhibition of NE uptake [3]: 14 fold
CCC(NC(C)(C)C)C(=O)c1ccc(Cl)c(Cl)c1 (stereo not drawn) [Compound 2w] | 24 fold | – | – | – | – | –
Cc1ccc(C(=O)C(C)NC(C)(C)C)cc1 (stereo not drawn) [Compound 2i] | ~ 10 fold | – | – | – | – | –
Cc1cccc(C(=O)C(C)N2CCCC2)c1 (stereo not drawn) [Compound 2cc, 2-(N-Pyrrolidinyl)-3’-methylpropiophenone] | – | 0.414 ± 0.089 µM | 0.577 ± 0.061 µM | 11 µM | 56 µM | IC50 [7]: 53 µM
CC(NC(C)(C)C)C(=O)c1cc(Cl)cc(Cl)c1 (stereo not drawn) [Compound 2n] | 43 fold | – | – | – | – | –
CC(C(=O)c1cccc(Cl)c1)N1CCCCC1 (stereo not drawn) [Compound 2ff] | 24 fold | – | – | – | – | –
CC(NC(C)(C)C)C(=O)c1cccc(Br)c1 (stereo not drawn) [Compound 2c] | ~ 10 fold | – | – | – | – | –
CC(C(=O)c1cccc([N+](=O)[O-])c1)N1CCCC1 (stereo not drawn) [Compound 2ee, 2-(N-Pyrrolidinyl)-3’-nitropropiophenone] | – | 10 ± 1.9 µM | 4.1 ± 0.54 µM | 53 µM | – | –
COc1cccc(C(=O)C(C)N2CCCC2)c1 (stereo not drawn) [Compound 2dd, 2-(N-Pyrrolidinyl)-3’-methoxypropiophenone] | – | 0.452 ± 0.082 µM | 0.718 ± 0.13 µM | 16 µM | 57 µM | IC50 [7]: 87 µM
